Data: patent US20190060249A1 (priority 2017, published 2019)

Key:
ALDH3A1 = molecular target: T1, ALDH3A1 (Homo sapiens, UniProt P30838); assay: ALDH fluorescence-coupled enzymatic assay, all-trans-retinal substrate, ALDH3A1; assay type: biochemical
T1 sequence (P30838 1-453): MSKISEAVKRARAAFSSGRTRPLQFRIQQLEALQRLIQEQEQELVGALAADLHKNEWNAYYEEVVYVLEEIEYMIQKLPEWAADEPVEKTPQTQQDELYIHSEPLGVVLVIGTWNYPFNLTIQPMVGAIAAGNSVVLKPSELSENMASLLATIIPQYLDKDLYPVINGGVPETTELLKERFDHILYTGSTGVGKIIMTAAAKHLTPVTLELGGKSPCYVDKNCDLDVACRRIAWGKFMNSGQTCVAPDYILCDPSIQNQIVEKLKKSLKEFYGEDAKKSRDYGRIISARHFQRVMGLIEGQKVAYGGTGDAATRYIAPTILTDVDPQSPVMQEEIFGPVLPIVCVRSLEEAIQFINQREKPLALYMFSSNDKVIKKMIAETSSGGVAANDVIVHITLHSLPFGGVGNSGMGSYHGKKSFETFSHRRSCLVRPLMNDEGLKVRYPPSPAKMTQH
Experimental: Assay conditions were modified from the original enzyme assay protocol above using 50 mM NaPPi buffer (pH 7.4), 2.5 mM NAD^+, 10 mM acetaldehyde or all-trans-retinal substrate with the addition of 1 U/mL diaphorase and 0.1 mM resazurin for the secondary reaction. Measurements were collected in triplicate at 25° C.

ALDH7A1 = molecular target: T2, ALDH7A1 (Homo sapiens, UniProt P49419); assay: ALDH enzymatic assay, recombinant ALDH7A1; assay type: biochemical; conditions: 5 μg/ml recombinant enzyme, 10 mM acetaldehyde, 20 μM Alda-341
T2 sequence (P49419 27-539): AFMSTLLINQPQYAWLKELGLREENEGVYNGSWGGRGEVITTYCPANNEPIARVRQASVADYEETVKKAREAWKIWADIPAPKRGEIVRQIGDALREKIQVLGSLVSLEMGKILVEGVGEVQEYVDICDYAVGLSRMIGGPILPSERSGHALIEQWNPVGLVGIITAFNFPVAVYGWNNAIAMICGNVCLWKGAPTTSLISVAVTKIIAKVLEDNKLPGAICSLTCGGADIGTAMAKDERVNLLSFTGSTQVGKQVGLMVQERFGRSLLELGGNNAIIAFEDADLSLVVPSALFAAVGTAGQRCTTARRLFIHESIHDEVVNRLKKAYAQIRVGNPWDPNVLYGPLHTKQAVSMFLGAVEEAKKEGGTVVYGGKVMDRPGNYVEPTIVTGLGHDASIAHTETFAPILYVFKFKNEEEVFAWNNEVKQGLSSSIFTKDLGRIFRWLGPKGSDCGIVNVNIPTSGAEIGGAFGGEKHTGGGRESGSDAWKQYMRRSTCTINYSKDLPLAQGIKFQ
Experimental: ALDH enzymatic assay: ALDH1A1, ALDH1A2, 2, 3A1, 3A2, 4A1, 5A1, 7A1 were measured as previously described using 5 μg/ml of recombinant protein (Chen, C. H., Cruz, L. A., and Mochly-Rosen, D. (2015) Pharmacological recruitment of aldehyde dehydrogenase 3A1 (ALDH3A1) to assist ALDH2 in acetaldehyde and ethanol metabolism in vivo. Proceedings of the National Academy of Sciences of the United States of America 112, 3074-3079). […] Assays were conducted in 50 mM NaPPi buffer (pH 7.4) in the presence of 2.5 mM NAD^+ and 10 mM substrate and measured in triplicate at 25° C. Dose response curve fits and EC50's were calculated using GraphPad Prism 7 software.

[1] = tested on: intact SMG from CD-1 E13.5 embryos; assay: DarkZone dye aldehyde assay in intact E13.5 embryonic SMG; assay type: cell-based, mouse; conditions: 25 μM Alda-341 for 24 h, 4 Gy, 3 h after radiation
Experimental: DarkZone dye aldehyde assay in intact E13.5 embryonic SMG: E13.5 embryonic whole SMG were manually dissected and cultured in DMEM/F12 with 50 ug/mL transferrin and 50 ug/mL Vitamin C for 24 h. Glands were irradiated with 4 or 8 Gy and incubated with 20 uM DarkZone fluorescein aldehyde dye and 10 mM 2,4-Dimethoxyaniline catalyst (TCI America) for 1 h (Yuen, L. H., Saxena, N. S., Park, H. S., Weinberg, K., and Kool, E. T. (2016) Dark Hydrazone Fluorescence Labeling Agents Enable Imaging of Cellular Aldehydic Load. ACS chemical biology 11, 2312-2319). Glands were imaged 3 h after radiation using a Keyence BZ-X710 microscope GFP filter at 10× magnification. Average fluorescence intensity was quantified using Image J (NIH).
After 24 h, the glands were irradiated with 4 Gy and incubated SMG with DarkZone dye to measure intracellular aldehydes. After 3 h, the aldehydic load in the irradiated vehicle control-treated SMG was more than 4-fold greater than the non-irradiated vehicle control-treated SMG.

[2] = tested on: salispheres of C57BL/6 mice; assay: Organoid formation assay; assay type: cell-based, mouse; conditions: 25 μM Alda-341, 7 d
Experimental: Organoids, defined as having greater than or equal to 5 buds, were blindly counted and quantified as a ratio of organoid number to total number of organoids and undifferentiated spheres. 4 replicates per group. All error bars represent SEM. *=p<0.05; **=p<0.01; ***=p<0.001 (Student's t-test).
Organoid formation assay: Spheres were dissociated in 1 mg/mL dispase (BD Biosciences) for 20 minutes and resuspended in 80% collagen, 10% 10× F12, and 10% Solution C (2.2 g NaHCO3 in 100 mL of 0.05 N NaOH and 200 mM HEPES) and combined with 60% matrigel. 200 spheres per well were plated in a Millicell cell culture insert (EMD Millipore) with sphere media. Organoids defined as having greater than or equal to 5 buds formed after 2-3 d in culture and were grown for 7 d before imaging with a BZ-X710 Keyence microscope using the z-stack function. Images were stitched together into a single image and the number of differentiated organoids and undifferentiated spheres were blindly counted and quantified as a ratio of organoid number to total number of organoids and undifferentiated spheres. Experiments were repeated at least three independent times.

Structure (SMILES): C=C(C)[C@H]1CC=C(C)CC1 [Alda-341, D-limonene]
- catalytic activity of all trans-retinal in ALDH3A1 (ALDH3A1): did not increase
- catalytic activity of ALDH7A1 (ALDH7A1): did not increase
- aldehydic load after radiation [1]: reduced the aldehydic load to almost non-irradiated levels
- more organoids than vehicle-treated control [2]: 25%
